# Laboratory results taken from US20240374763A1, “DIAGNOSIS AND MONITORING USING EXTRADOMAIN-B FIBRONECTIN TARGETED PROBES” (Case Western Reserve University, priority 2020, published 2024).
# No end group written: not given here.
# Assays:
# Type in all cases: in vivo, mice
# SCC4 tumors = test: MRMI of OSCC flank xenografts, SCC4; settings: MT218 0.04 mmol/kg
# Experimental: Animal experiments were performed under an animal protocol approved by the Institutional Animal Care and Use Committee (IACUC) at Case Western Reserve University (CWRU, Cleveland, OH, USA). Female 4-week-old athymic nude mice purchased from the Jackson Laboratory (Bar Harbor, ME, USA) were housed in the Animal Core Facility at CWRU. Anesthetized mice were subcutaneously inoculated in the right flank with 4×10^6 GFP/luciferase-expressing OSCC cells (n=5 per cell line) in 100 μL of a 1:1 mixture of Matrigel HC (Corning) and DPBS. Tumor size was monitored with caliper measurements. After 4 weeks of growth, tumors were sufficiently large for MRI experiments.
# MRI experiments were performed with a 3T MRS-3000 system (MR Solutions, Surrey, UK). […] This protocol was repeated on the same mice 2 days later using the untargeted clinical agent gadoteridol at the clinical dose of 0.10 mmol/kg.
# Images were exported in DICOM format and analyzed using FIJI. Contrast-to-noise ratio (CNR) for each time point was calculated as the difference between the mean tumor intensity and the mean muscle intensity, divided by the standard deviation of noise.
# PC3-DR tumors = test: MRMI with MT218, PC3-DR xenografts; settings: 0.04 mmol Gd/kg, 20 min post-injection, p=0.07
# Excerpt: (§1) Xenograft models were established by subcutaneous flank injections in athymic nu/nu mice for the 4 prostate cancer cells and tested with MRMI using 0.04 mmol Gd/kg of MT218.
# RKO-DR tumors = test: MRMI of EDB-FN with MT218, RKO-DR xenografts
# Experimental: Nude athymic mice (6-week-old nu/nu females) were purchased from The Jackson Laboratory (Bar Harbor, […]) and housed in the Animal Facility at CWRU. All the animal experiments were performed according to the protocol approved by the IACUC of CWRU. For assessment of drug resistance, 2 drug-resistant and 2 non-drug-resistant models were set up. About 3-4×10^6 DLD-1, RKO, DLD1-DR, and RKO-DR cells suspended in Matrigel-PBS mixture (1:1) were subcutaneously injected in the left flanks of nude mice (100 μL per mouse, 5 mice per group×4 models=20 mice). After 9 days when the tumors reached 100-200 mm3, MRMI was performed on the 4 xenograft models with 40 μmol/kg dose of MT218. The animals were then euthanized, and the tumors were harvested for post-mortem histology and IHC.
# MT218 was synthesized as previously described. Ayat, N. R., et al., ACS Med Chem Lett, 2018. 9(7): p. 730-735. Briefly, click reaction between alkynyl-ZD2 and N3-Gd(HP-DO3A) was performed in the presence of CuSO4 and ascorbate at room temperature, followed by FLASH chromatography purification and validation of MT218 by MALDI-TOF mass spectrometry (m.w. 1443). For assessment of drug resistance and therapeutic monitoring, MRMI was performed in a 3T MRS 3000 scanner (MR Solutions, Surrey, UK) with a mouse short quad coil. The mice were anesthetized with isofluorane and tail vein catheter was setup. T1-weighted MR images were obtained before (pre-contrast) and 25 min after injection (post-contrast) of 40 μmol/kg dose of MT218 [ZD2-N3—Gd(HP-DO3A)]. The following two sequences were used with respiratory gating: axial fast spin echo (FSE) (TR=305 ms, TE=11 ms, FA=90°, FOV=40 mm×40 mm, slice thickness=1 mm, slice number=15, Nav=2, matrix=256×256) and coronal FSE (TR=305 ms, TE=11 ms, FA=90°, FOV=90 mm×90 mm, slice thickness=1 mm, slice number=20, Nav=1, matrix=248×512). […] Contrast-to-noise ratios (CNRs) were calculated as (mean tumor intensity—mean muscle intensity)/standard deviation of noise. […]
# LNCaP-CXCR2 tumors = test: MRMI with MT218, LNCaP-CXCR2 xenografts; settings: 0.04 mmol Gd/kg, 20 min post-injection
# Excerpt: as §1
# MDA-MB-231 tumors = test: MRMI-mediated monitoring of therapeutic response, MDA-MB-231 tumors; settings: pretreatment MDA-MB-231 tumors, MT218 0.1 mmol/kg, first 30 min
# Experimental: (§2) The targeted MRI contrast agent ZD2-N3-Gd(HP-DO3A) (MT218) was provided by Molecular Theranostics (Cleveland, OH) and was synthesized. MR images of the mice bearing MDA-MB-231 or Hs578T tumors were acquired on a 3T MRS 3000 scanner (MRS Solutions, Surrey, UK) with a mouse short quad coil. T1-weighted images were acquired following intravenous injection of MT218 at dose of 0.1 mmol/kg using a fast spin echo (FSE) axial sequence with respiratory gating (TR=305 ms, TE=11 ms, FA=90°, FOV=40×40 mm, slice thickness=1 mm, slice number=15, Nav=2, matrix=256×256). Images were acquired before and at 10, 20, and 30 min after injection of MT218. MRMI was performed before the treatment and then at week 6 post-nanoparticle treatments for MDA-MB-231 and Hs578T tumors. MRI data and image processing was conducted using FIJI (FIJI is just ImageJ) software. The contrast-to-noise ratios (CNRs) of tumors were calculated as the difference of the mean tumor intensity and the mean muscle intensity divided by the standard deviation of the noise.
# C4-2-DR tumors = test: MRMI with MT218, C4-2-DR xenografts; settings: 0.04 mmol Gd/kg, 20 min post-injection
# Excerpt: as §1
# Hs578T tumors = test: MRMI-mediated monitoring of therapeutic response, Hs578T tumors; settings: pretreatment Hs578T tumors, MT218 0.1 mmol/kg, first 30 min
# Experimental: as §2
# [1] = RKO-DR over RKO tumors, 40 μmol/kg MT218
substance,measurement,setting,value
"ZD2-N3-Gd(HP-DO3A) (TVRTSAD; also: conjugated to Gd(HP-DO3A) by click reaction of alkynyl-ZD2 with N3-Gd(HP-DO3A), residue of attachment not given here, Gd complex) [MT218, EDB-FN-targeted MRI contrast agent; ZD2 peptide conjugated to the clinical macrocyclic agent Gd(HP-DO3A)]",average maximum enhancement (CNR),SCC4 tumors,3.81±0.25
same,CNR over the pre-contrast,PC3-DR tumors,1.6 fold
same,higher CNRs over the non-resistant tumors,RKO-DR tumors; [1],1.8 fold
same,increase in CNR over the non-resistant tumors,RKO-DR tumors; [1],84%
same,higher CNRs over pre-contrast,"RKO-DR tumors; RKO-DR tumors, 40 μmol/kg MT218, 25 min post-injection",2.6 fold
same,increase of CNR,LNCaP-CXCR2 tumors,~3 fold
same,signal enhancement vs pre-contrast,MDA-MB-231 tumors,Strong signal enhancement
same,increase of CNR,C4-2-DR tumors,6 fold
same,signal enhancement vs pre-contrast,Hs578T tumors,Strong signal enhancement
